Measured values published in ChEMBL document CHEMBL3046898, “Synthesis and characterization of flurbiprofen hydrazide derivatives as potential anti-HCV, anticancer and antimicrobial agents” (2013).
The source made the active and inactive calls. The calls are words filed in the database; no cut-off is given here.

Assays:
Proteus vulgaris [1] = test: Antibacterial activity against Proteus vulgaris at 6.25 to 200 ug/ml after 24 hrs by microwell dilution method; assay type: functional, organism-based
Staphylococcus aureus [2] = test: Antibacterial activity against Staphylococcus aureus at 6.25 to 200 ug/ml after 24 hrs by microwell dilution assay; assay type: functional, organism-based
Micrococcus luteus [3] = test: Antibacterial activity against Micrococcus luteus at 6.25 to 200 ug/ml after 24 hrs by microwell dilution method; assay type: functional, organism-based
Nakaseomyces glabratus = test: Antifungal activity against Candida glabrata at 10 mg/ml after 48 hrs by disc diffusion method; assay type: functional, organism-based
Candida albicans = test: Antifungal activity against Candida albicans at 10 mg/ml after 48 hrs by disc diffusion method; assay type: functional, organism-based
HCC 2998 = test: Cytotoxicity against human HCC2998 assessed as cell growth at 10 uM after 48 hrs by SRB assay; assay type: functional; conditions: HCC 2998, 48 h, read-out: Activity
MDA-MB-468 = test: Cytotoxicity against human MDA-MB-468 assessed as cell growth at 10 uM after 48 hrs by SRB assay; assay type: functional; conditions: MDA-MB-468, 48 h, read-out: Activity
T47D = test: Cytotoxicity against human T47D assessed as cell growth at 10 uM after 48 hrs by SRB assay; assay type: functional; conditions: read-out: Activity
BT-549 = test: Cytotoxicity against human BT549 assessed as cell growth at 10 uM after 48 hrs by SRB assay; assay type: functional; conditions: BT-549, 48 h, read-out: Activity
PC-3 = test: Cytotoxicity against human PC3 assessed as cell growth at 10 uM after 48 hrs by SRB assay; assay type: functional; conditions: PC-3, 48 h, read-out: Activity
SN12C = test: Cytotoxicity against human SN12C assessed as cell growth at 10 uM after 48 hrs by SRB assay; assay type: functional; conditions: read-out: Activity
A498 = test: Cytotoxicity against human A498 assessed as cell growth at 10 uM after 48 hrs by SRB assay; assay type: functional; conditions: A498, 48 h, read-out: Activity
786-0 = test: Cytotoxicity against human 786-0 assessed as cell growth at 10 uM after 48 hrs by SRB assay; assay type: functional; conditions: 786-0, 48 h, read-out: Activity
[4] = Cytotoxicity against human NCI-ADR-RES assessed as cell growth at 10 uM after 48 hrs by SRB assay; assay type: functional; conditions: read-out: Activity
SK-OV-3 = test: Cytotoxicity against human SKOV3 assessed as cell growth at 10 uM after 48 hrs by SRB assay; assay type: functional; conditions: SK-OV-3, 48 h, read-out: Activity
OVCAR-8 = test: Cytotoxicity against human OVCAR8 assessed as cell growth at 10 uM after 48 hrs by SRB assay; assay type: functional; conditions: OVCAR-8, 48 h, read-out: Activity
SK-MEL-2 = test: Cytotoxicity against human SK-MEL-2 assessed as cell growth at 10 uM after 48 hrs by SRB assay; assay type: functional; conditions: SK-MEL-2, 48 h, read-out: Activity
SK-MEL-28 = test: Cytotoxicity against human SK-MEL-28 assessed as cell growth at 10 uM after 48 hrs by SRB assay; assay type: functional; conditions: SK-MEL-28, 48 h, read-out: Activity
LOX IMVI = test: Cytotoxicity against human LOXIMVI assessed as cell growth at 10 uM after 48 hrs by SRB assay; assay type: functional; conditions: read-out: Activity
SF-295 = test: Cytotoxicity against human SF295 assessed as cell growth at 10 uM after 48 hrs by SRB assay; assay type: functional; conditions: SF-295, 48 h, read-out: Activity
KM12 = test: Cytotoxicity against human KM12 assessed as cell growth at 10 uM after 48 hrs by SRB assay; assay type: functional; conditions: KM12, 48 h, read-out: Activity
HCT-116 = test: Cytotoxicity against human HCT116 assessed as cell growth at 10 uM after 48 hrs by SRB assay; assay type: functional; conditions: HCT-116, 48 h, read-out: Activity
HCT-15 = test: Cytotoxicity against human HCT15 assessed as cell growth at 10 uM after 48 hrs by SRB assay; assay type: functional; conditions: HCT-15, 48 h, read-out: Activity
COLO 205 = test: Cytotoxicity against human COLO205 assessed as cell growth at 10 uM after 48 hrs by SRB assay; assay type: functional; conditions: COLO 205, 48 h, read-out: Activity
NCI-H522 = test: Cytotoxicity against human NCI-H522 assessed as cell growth at 10 uM after 48 hrs by SRB assay; assay type: functional; conditions: NCI-H522, 48 h, read-out: Activity
NCI-H322M = test: Cytotoxicity against human NCI-H322M assessed as cell growth at 10 uM after 48 hrs by SRB assay; assay type: functional; conditions: read-out: Activity
EKVX = test: Cytotoxicity against human EKVX assessed as cell growth at 10 uM after 48 hrs by SRB assay; assay type: functional; conditions: read-out: Activity
HOP-62 = test: Cytotoxicity against human HOP62 assessed as cell growth at 10 uM after 48 hrs by SRB assay; assay type: functional; conditions: HOP-62, 48 h, read-out: Activity
Photorhabdus luminescens = test: Antibacterial activity against Photorhabdus luminescens at 6.25 to 200 ug/ml after 24 hrs by microwell dilution method; assay type: functional, organism-based
A549 = test: Cytotoxicity against human A549 assessed as cell growth at 10 uM after 48 hrs by SRB assay; assay type: functional; conditions: A549, 48 h, read-out: Activity
RPMI-8226 = test: Cytotoxicity against human RPMI8226 assessed as cell growth at 10 uM after 48 hrs by SRB assay; assay type: functional; conditions: RPMI-8226, 48 h, read-out: Activity
MOLT-4 = test: Cytotoxicity against human MOLT4 assessed as cell growth at 10 uM after 48 hrs by SRB assay; assay type: functional; conditions: MOLT-4, 48 h, read-out: Activity
HL-60(TB) = test: Cytotoxicity against human HL-60(TB) assessed as cell growth at 10 uM after 48 hrs by SRB assay; assay type: functional; conditions: HL-60, 48 h, read-out: Activity
K562 = test: Cytotoxicity against human K562 assessed as cell growth at 10 uM after 48 hrs by SRB assay; assay type: functional; conditions: K562, 48 h, read-out: Activity
Klebsiella aerogenes = test: Antibacterial activity against Enterobacter aerogenes at 10 mg/ml after 24 hrs by disc diffusion method; assay type: functional, organism-based
Salmonella paratyphi = test: Antibacterial activity against Salmonella paratyphi at 10 mg/ml after 24 hrs by disc diffusion method; assay type: functional, organism-based; conditions: Salmonella enterica subsp. enterica serovar Paratyphi A
Pseudomonas aeruginosa = test: Antibacterial activity against Pseudomonas aeruginosa at 10 mg/ml after 24 hrs by disc diffusion method; assay type: functional, organism-based
Proteus vulgaris [5] = test: Antibacterial activity against Proteus vulgaris at 10 mg/ml after 24 hrs by disc diffusion method; assay type: functional, organism-based
Micrococcus luteus [6] = test: Antibacterial activity against Micrococcus luteus at 10 mg/ml after 24 hrs by disc diffusion method; assay type: functional, organism-based
Staphylococcus aureus [7] = test: Antibacterial activity against Staphylococcus aureus at 10 mg/ml after 24 hrs by disc diffusion method; assay type: functional
Staphylococcus cohnii = test: Antibacterial activity against Staphylococcus cohnii at 10 mg/ml after 24 hrs by disc diffusion method; assay type: functional
Hepacivirus hominis = test: Inhibition of HCV N-terminal His-tagged NS5B RNA dependent RNA polymerase expressed in Escherichia coli DH5alpha using poly rA/U12 as primer at 200 uM after 60 mins by liquid scintillation counting

## CC(C(=O)NN1C(=O)CSC1c1ccc(C(F)(F)F)cc1)c1ccc(-c2ccccc2)c(F)c1 (configuration not stated)
Proteus vulgaris [1]
  Activity: inactive
Staphylococcus aureus [2]
  Activity: inactive
Micrococcus luteus [3]
  Activity: inactive
Nakaseomyces glabratus
  Activity: inactive
Candida albicans
  Activity: inactive
HCC 2998
  growth at 10 µM: 155%
MDA-MB-468
  growth at 10 µM: 59.4%
T47D
  growth at 10 µM: 33.4%
BT-549
  growth at 10 µM: 68%
PC-3
  growth at 10 µM: 37.5%
SN12C
  growth at 10 µM: 72.3%
A498
  growth at 10 µM: 56.8%
786-0
  growth at 10 µM: 47.2%
[4]
  growth at 10 µM: 86.5%
SK-OV-3
  growth at 10 µM: 94.7%
OVCAR-8
  growth at 10 µM: 86.5%
SK-MEL-2
  growth at 10 µM: 88.4%
SK-MEL-28
  growth at 10 µM: 99.9%
LOX IMVI
  growth at 10 µM: 74.5%
SF-295
  growth at 10 µM: 58.4%
KM12
  growth at 10 µM: 46.2%
HCT-116
  growth at 10 µM: 45.5%
HCT-15
  growth at 10 µM: 69.5%
COLO 205
  growth at 10 µM: 108%
NCI-H522
  growth at 10 µM: 79.5%
NCI-H322M
  growth at 10 µM: 76.9%
EKVX
  growth at 10 µM: 57.9%
HOP-62
  growth at 10 µM: 82.1%
Photorhabdus luminescens
  Activity: inactive
A549
  growth at 10 µM: 68.6%
RPMI-8226
  growth at 10 µM: 43.3%
MOLT-4
  growth at 10 µM: 43.5%
HL-60(TB)
  growth at 10 µM: 36.9%
K562
  growth at 10 µM: 39.5%
Klebsiella aerogenes
  Activity: inactive
Salmonella paratyphi
  Activity: inactive
Pseudomonas aeruginosa
  Activity: inactive
Proteus vulgaris [5]
  Activity: inactive
Micrococcus luteus [6]
  Activity: inactive
Staphylococcus aureus [7]
  Activity: inactive
Staphylococcus cohnii
  Activity: inactive
Hepacivirus hominis
  inhibition: 8%
